The subject of this data set is CCRIS mutagenicity, Ames/micronucleus/aberration tests. The data set can be described thus: CCRIS mutagenicity studies. As to conditions: Test System: AMES SALMONELLA TYPHIMURIUM

Three molecules from PubChem BioAssay AID1259407 (Chemical Carcinogenesis Research Information System (CCRIS), 2018) can be followed below.

Each structure is given as a SMILES string. Active and inactive are the calls of the source. No rule for the calls is given here.

For the molecule `CN(C)N=Nc1ccc(Br)cc1`, the mutagenic call (Strain/Indicator: TA92, Metabolic Activation: MOUSE, LIVER, S-9, POLYCHLORINATED BIPHENYLS, Method: PREINCUBATION) was “inactive; negative”; the mutagenic call (Strain/Indicator: TA92, Metabolic Activation: MOUSE, LIVER, S-9, POLYCHLORINATED BIPHENYLS, Method: STANDARD PLATE) is “inactive; negative”; the mutagenic call (Strain/Indicator: TA92, Metabolic Activation: NONE, Method: STANDARD PLATE) was “inactive; negative”; the mutagenic call (Strain/Indicator: TA97, Metabolic Activation: MOUSE, LIVER, S-9, POLYCHLORINATED BIPHENYLS, Method: PREINCUBATION) is “inactive; negative”; the mutagenic call (Strain/Indicator: TA97, Metabolic Activation: MOUSE, LIVER, S-9, POLYCHLORINATED BIPHENYLS, Method: STANDARD PLATE) was “inactive; negative”; the mutagenic call (Strain/Indicator: TA97, Metabolic Activation: NONE, Method: STANDARD PLATE) is “inactive; negative”. In addition, the mutagenic call (Strain/Indicator: TA98, Metabolic Activation: MOUSE, LIVER, S-9, POLYCHLORINATED BIPHENYLS, Method: PREINCUBATION) was “active; positive”; the mutagenic call (Strain/Indicator: TA98, Metabolic Activation: MOUSE, LIVER, S-9, POLYCHLORINATED BIPHENYLS, Method: STANDARD PLATE) is “inactive; negative”; the mutagenic call (Strain/Indicator: TA98, Metabolic Activation: NONE, Method: STANDARD PLATE) is “inactive; negative”; the mutagenic call (Strain/Indicator: TA100, Metabolic Activation: MOUSE, LIVER, S-9, POLYCHLORINATED BIPHENYLS, Method: PREINCUBATION) is “inactive; negative”; the mutagenic call (Strain/Indicator: TA100, Metabolic Activation: MOUSE, LIVER, S-9, POLYCHLORINATED BIPHENYLS, Method: STANDARD PLATE) was “inactive; negative”; the mutagenic call (Strain/Indicator: TA100, Metabolic Activation: NONE, Method: STANDARD PLATE) was “inactive; negative”. The mutagenic call by setting is: (Strain/Indicator: TA1535, Metabolic Activation: MOUSE, LIVER, S-9, POLYCHLORINATED BIPHENYLS, Method: PREINCUBATION) “active; positive”; (Strain/Indicator: TA1535, Metabolic Activation: MOUSE, LIVER, S-9, POLYCHLORINATED BIPHENYLS, Method: STANDARD PLATE) “inactive; negative”; (Strain/Indicator: TA1535, Metabolic Activation: NONE, Method: STANDARD PLATE) “inactive; negative”; (Strain/Indicator: TA1537, Metabolic Activation: MOUSE, LIVER, S-9, POLYCHLORINATED BIPHENYLS, Method: PREINCUBATION) “active; positive”; (Strain/Indicator: TA1537, Metabolic Activation: MOUSE, LIVER, S-9, POLYCHLORINATED BIPHENYLS, Method: STANDARD PLATE) “active; positive”; (Strain/Indicator: TA1537, Metabolic Activation: NONE, Method: STANDARD PLATE) “active; positive”. Further, the mutagenic call (Strain/Indicator: TA1538, Metabolic Activation: MOUSE, LIVER, S-9, POLYCHLORINATED BIPHENYLS, Method: PREINCUBATION) was “inactive; negative”; the mutagenic call (Strain/Indicator: TA1538, Metabolic Activation: MOUSE, LIVER, S-9, POLYCHLORINATED BIPHENYLS, Method: STANDARD PLATE) was “active; positive”; the mutagenic call (Strain/Indicator: TA1538, Metabolic Activation: NONE, Method: STANDARD PLATE) was “inactive; negative”.

Consider `Cc1cc2c(cc1C)-c1cc3ccccc3c3cccc-2c13`, for which, where the note is “Strain/Indicator: TA100, Metabolic Activation: RAT, LIVER, S-9, AROCLOR 1254”, the mutagenic call is “active; positive”.

For the molecule `Fc1cc2ccccc2c2ncccc12`, the mutagenic call (Strain/Indicator: TA100, Metabolic Activation: RAT, LIVER, S-9, PHENOBARBITAL AND 5,6-BENZOFLAVONE, Method: PREINCUBATION) was “active; positive”.
